Test [1] deals with A549. The experiment in a line: Cytotoxicity against human A549 cells assessed as reduction in cell viability after 24 hrs by WST8 assay. The format is functional, cell-based. Conditions: A549, 24 h. (Formazan colour is commonly taken as a measure of viable cells.)
Test [2] relates to A549. The experiment in a line: Cytotoxicity against human A549 cells assessed as reduction in cell viability after 48 hrs by WST8 assay. Type of test: functional, cell-based. The following applies: A549, 48 h.
Test [3] can be described thus: Cytotoxicity against human PC3 cells assessed as reduction in cell viability after 24 hrs by WST8 assay. Conditions: PC-3, 24 h. The format is functional, cell-based.
The nature of test [4]: Cytotoxicity against human PC3 cells assessed as reduction in cell viability after 48 hrs by WST8 assay. The format is functional, cell-based. Conditions: PC-3, 48 h.
Test [5] can be described thus: Cytotoxicity against human MIAPaCa2 cells assessed as reduction in cell viability after 24 hrs by WST8 assay. The following applies: MIA PaCa-2, 24 h. Type of test: functional, cell-based.
A short description of test [6]: Cytotoxicity against human MIAPaCa2 cells assessed as reduction in cell viability after 48 hrs by WST8 assay. The following applies: MIA PaCa-2, 48 h. The format is functional, cell-based.
In the next test the target is Tubulin (Sus scrofa) (UniProt P02554+P02550). Kind of test: Induction of porcine brain tubulin polymerization at 5 uM incubated for 10 to 40 mins by spectrophotometry.

The source made the active and inactive calls. No cut-off for these calls is given here.

Tubulin (Sus scrofa), sequence (P02550 whole entry, looked up): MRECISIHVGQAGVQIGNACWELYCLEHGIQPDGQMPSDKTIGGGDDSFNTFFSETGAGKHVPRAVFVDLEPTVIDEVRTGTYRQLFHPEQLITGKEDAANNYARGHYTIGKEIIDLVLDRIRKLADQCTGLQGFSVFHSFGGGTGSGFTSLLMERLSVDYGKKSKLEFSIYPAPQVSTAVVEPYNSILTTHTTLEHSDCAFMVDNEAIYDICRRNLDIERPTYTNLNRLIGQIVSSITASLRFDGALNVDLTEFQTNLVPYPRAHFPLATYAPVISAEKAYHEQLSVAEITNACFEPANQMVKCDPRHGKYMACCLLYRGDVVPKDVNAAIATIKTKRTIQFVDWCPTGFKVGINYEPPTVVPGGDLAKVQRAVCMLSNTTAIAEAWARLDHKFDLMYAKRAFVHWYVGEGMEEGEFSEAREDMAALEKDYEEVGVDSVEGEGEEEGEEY
Tubulin (Sus scrofa), sequence (P02554 whole entry, looked up): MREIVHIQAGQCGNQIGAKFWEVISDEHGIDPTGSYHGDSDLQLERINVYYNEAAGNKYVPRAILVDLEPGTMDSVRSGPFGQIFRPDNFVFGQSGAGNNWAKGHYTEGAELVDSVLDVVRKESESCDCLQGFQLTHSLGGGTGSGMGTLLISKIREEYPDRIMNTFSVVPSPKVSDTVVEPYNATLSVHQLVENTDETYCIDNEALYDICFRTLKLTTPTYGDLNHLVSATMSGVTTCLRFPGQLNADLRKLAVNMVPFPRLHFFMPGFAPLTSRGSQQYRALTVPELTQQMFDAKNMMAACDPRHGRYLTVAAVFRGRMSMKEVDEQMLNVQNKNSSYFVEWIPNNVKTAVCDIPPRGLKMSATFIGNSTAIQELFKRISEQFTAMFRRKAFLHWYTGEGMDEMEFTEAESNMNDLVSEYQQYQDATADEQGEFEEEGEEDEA

Regarding `N#C/C(=C\c1cn(Cc2ccc(Cl)cc2)c2ccccc12)C(=O)c1c[nH]c2ccccc12`, the IC50 (with A549 [1]; in the test with A549 [2]; in test [3]; in test [4]; in test [5]; in test [6]) was above 50 µM in each case.
In the case of `N#C/C(=C\c1cn(Cc2ccc(Cl)cc2)c2ccc(Br)cc12)C(=O)c1c[nH]c2ccccc12`, the IC50 is 14 µM with A549 [1]; 24.9 µM with A549 [2]; 47.1 µM in test [3]; 36.5 µM in test [4]; 37.7 µM in test [5]; above 50 µM in test [6].
Take `COc1ccc2[nH]cc(C(=O)/C(C#N)=C/c3c[nH]c4cc(F)ccc34)c2c1`: the IC50 (in the test on A549 [1]; with A549 [2]; in test [3]; in test [4]; in test [5]; in test [6]) was above 50 µM in each case.
`N#C/C(=C\c1c[nH]c2ccccc12)C(=O)c1c[nH]c2ccccc12`: the IC50 with A549 [1] is 16.1 µM; with A549 [2], 22 µM; in test [3] it was above 50 µM; in test [4], above 50 µM; in test [5], 17.9 µM; in test [6], 36.8 µM.
On to `N#C/C(=C\c1c[nH]c2ccc(Br)cc12)C(=O)c1c[nH]c2ccc(Br)cc12`, for which the IC50 (in the test with A549 [1]; in the test with A549 [2]; in test [3]; in test [4]; in test [5]; in test [6]) was above 50 µM throughout.
Regarding `COc1ccc2[nH]cc(/C=C(\C#N)C(=O)c3c[nH]c4ccccc34)c2c1`, the IC50 turned out to be 6.6 µM in the test with A549 [1]; 13.7 µM in the test with A549 [2]; 33.2 µM in test [3]; 30.5 µM in test [4]; 21.2 µM in test [5]; 25.1 µM in test [6].
On to `COc1ccc2c(/C=C(\C#N)C(=O)c3c[nH]c4cc(F)ccc34)c[nH]c2c1`, for which the IC50 was 10.3 µM in the test with A549 [1]; 5.5 µM in the test with A549 [2]; above 50 µM in test [3]; 21.4 µM in test [4]; above 50 µM in test [5]; above 50 µM in test [6].
Turning to `COc1ccc2c(C(=O)/C(C#N)=C/c3c[nH]c4cc(F)ccc34)c[nH]c2c1`, the IC50 is 2.4 µM in the test on A549 [1]; 0.8 µM in the test with A549 [2]; 36 µM in test [3]; 22.5 µM in test [4]; above 50 µM in test [5]; above 50 µM in test [6].
With `Cn1cc(/C=C(\C#N)C(=O)c2c[nH]c3ccccc23)c2ccccc21`, the IC50 in the test on A549 [1] is 27.9 µM; in the test with A549 [2], above 50 µM; in test [3], above 50 µM; in test [4], above 50 µM; in test [5], 31.6 µM; in test [6] it was above 50 µM.
As for `COc1ccc2[nH]cc(/C=C(\C#N)C(=O)c3c[nH]c4cc(F)ccc34)c2c1`, the IC50 is 18 µM in the test with A549 [1]; 26.3 µM in the test with A549 [2]; above 50 µM in test [3]; above 50 µM in test [4]; above 50 µM in test [5]; above 50 µM in test [6].
As to `COc1ccc2c(C(=O)/C(C#N)=C/c3cn(Cc4ccc(Cl)cc4)c4ccccc34)c[nH]c2c1`, the IC50 in the test on A549 [1] is above 50 µM; in the test with A549 [2] it was above 50 µM; in test [3], above 50 µM; in test [4] it was above 50 µM; in test [5] it was above 50 µM; in test [6], 40.4 µM.
With `N#C/C(=C\c1c[nH]c2cc(F)ccc12)C(=O)c1c[nH]c2ccccc12`, the half-maximal inhibitory concentration (IC50) in the test on A549 [1] is 17 µM; with A549 [2], 22.7 µM; in test [3], above 50 µM; in test [4], above 50 µM; in test [5] it was 23.5 µM; in test [6], 31.6 µM.
Turning to `COc1ccc(Cn2cc(/C=C(\C#N)C(=O)c3c[nH]c4cc(F)ccc34)c3ccccc32)cc1`, the IC50 in the test on A549 [1] was above 50 µM; in the test with A549 [2], 36.3 µM; in test [3] it was above 50 µM; in test [4], above 50 µM; in test [5], above 50 µM; in test [6] it was 29.4 µM.
As to `COc1ccc2c(C(=O)/C(C#N)=C/c3c[nH]c4ccc(OC)cc34)c[nH]c2c1`, the IC50 in the test with A549 [1] is 3.7 µM; with A549 [2], 5.5 µM; in test [3], 31.1 µM; in test [4], 37.1 µM; in test [5], above 50 µM; in test [6], above 50 µM.
Regarding `COc1ccc2[nH]cc(/C=C(\C#N)C(=O)c3c[nH]c4ccc(OC)cc34)c2c1`, the IC50 with A549 [1] was above 50 µM; in the test with A549 [2], 24.5 µM; in test [3] it was above 50 µM; in test [4] it was above 50 µM; in test [5], 28.5 µM; in test [6], above 50 µM.
Consider `CO[C@@]12[C@H](COC(N)=O)C3=C(C(=O)C(C)=C(N)C3=O)N1C[C@@H]1N[C@@H]12` [MITOMYCIN], for which, in the test with A549 [1], the IC50 was determined as 0.45 µM.
As for `COc1ccc(Cn2cc(/C=C(\C#N)C(=O)c3c[nH]c4cc(OC)ccc34)c3ccccc32)cc1`, the IC50 in the test with A549 [1] was 37.4 µM; with A549 [2] it was 28.9 µM; in test [3], above 50 µM; in test [4], above 50 µM; in test [5] it was above 50 µM; in test [6], above 50 µM. Moreover, the outcome at Tubulin (Sus scrofa) was Active.
For the molecule `N#C/C(=C\c1cn(Cc2ccc(Cl)cc2)c2ccccc12)C(=O)c1c[nH]c2cc(F)ccc12`, the IC50 in the test with A549 [1] was above 50 µM; in the test on A549 [2] it was above 50 µM; in test [3], above 50 µM; in test [4], above 50 µM; in test [5] it was above 50 µM; in test [6] it was 16.6 µM.
As for `COc1ccc(-c2[nH]c3ccccc3c2/C=C(\C#N)C(=O)c2c[nH]c3ccccc23)cc1`, the IC50 was 4.9 µM in the test on A549 [1]; 3 µM in the test with A549 [2]; 17.2 µM in test [3]; 8.1 µM in test [4]; 24 µM in test [5]; above 50 µM in test [6].
`COc1ccc(Cn2cc(/C=C(\C#N)C(=O)c3c[nH]c4ccccc34)c3ccccc32)cc1`: the half-inhibitory concentration (IC50) (with A549 [1]; in the test on A549 [2]; in test [3]; in test [4]; in test [5]; in test [6]) was above 50 µM throughout.
On to `COc1ccc2c(C(=O)/C(C#N)=C/c3c[nH]c4ccccc34)c[nH]c2c1`, for which the IC50 was 6.4 µM in the test on A549 [1]; 7.5 µM in the test on A549 [2]; above 50 µM in test [3]; 12 µM in test [4]; 13.5 µM in test [5]; above 50 µM in test [6]. Also, the outcome on Tubulin (Sus scrofa) was Active.
As to `COc1ccc2c(/C=C(\C#N)C(=O)c3c[nH]c4cc(OC)ccc34)c[nH]c2c1`, the IC50 in the test with A549 [1] was 1.9 µM; in the test with A549 [2], 1.7 µM; in test [3], above 50 µM; in test [4] it was 27 µM; in test [5] it was above 50 µM; in test [6], above 50 µM. In addition, the outcome at Tubulin (Sus scrofa) was Active.
As for `N#C/C(=C\c1c[nH]c2cc(F)ccc12)C(=O)c1c[nH]c2cc(F)ccc12`, the IC50 with A549 [1] is above 50 µM; with A549 [2] it was 36.1 µM; in test [3] it was above 50 µM; in test [4], above 50 µM; in test [5], above 50 µM; in test [6] it was above 50 µM.
`COc1ccc2c(/C=C(\C#N)C(=O)c3c[nH]c4ccccc34)c[nH]c2c1`: the IC50 with A549 [1] was 9.6 µM; in the test on A549 [2], 5.8 µM; in test [3], 33.3 µM; in test [4], 12.5 µM; in test [5] it was 27.5 µM; in test [6] it was above 50 µM.

The term IC50 denotes the point on the concentration scale where inhibition reaches its midpoint.

These data come from ChEMBL document CHEMBL3351877, “Synthesis and identification of α-cyano bis(indolyl)chalcones as novel anticancer agents” (Bioorg Med Chem Lett, 2014).
